Measured values taken from US6911470B1, “Polyoxometalate compounds as antiviral agents” (priority 1988, dated 2005).
Where two headings read alike, the source gives them in different places.

Assays:
[1] = system: human granulocyte-macrophage precursor cells; format: cell-based
Source text: Preparation of Cells. Human bone marrow cells were collected by aspiration from the posterior iliac crest of normal healthy volunteers, treated with heparin and the mononuclear population separated by Ficoll-Hypaque gradient centrifugation. Cells were washed twice in Hanks balanced salt solution, counted with a hemacytometer and their viability was >98% as assessed by trypan blue exclusion.
Assay of Colony-Forming Unit Granulocyte-Macrophage (CFU-GM) for Drug Cytotoxicity. The culture assay for CFU-GM was performed using a bilayer soft-agar method as recently described (Sommadossi et al, Antimicrob. Agents Chemother. 31, 452-454, 1987). McCoy 5A nutrient medium supplemented with 15% dialyzed fetal bovine serum (heat inactivated at 56° C. for 30 min.) (Gibco Laboratories, Grand Island, N.Y.) was used in all experiments. This medium was completely lacking in thymidine and uridine. Cells were cloned in 0.3% agar in the presence of increasing concentrations of the modulating compound or in medium alone (control). After 14 days of incubation at 37° C. in a humidified atmosphere of 5% CO2 in air, colonies (≧50 cells) were counted using an inverted microscope.
The toxicities of a variety of polyoxometalates with respect to human bone marrow cells (human granulocyte-macrophage precursor cells) were assessed.

HSV-1 = assay: Plaque reduction assay for herpes simplex viruses in Vero cells; format: cell-based, herpes simplex virus type 1; details: Table 2, read-out: EC-50 HSV-1
Protocol: Cell culture assays for heroes simplex viruses. Mycoplasma-free Vero cells, obtained from Flow Laboratory (McLean, Va.), were used for the plaque assays. The methodologies for the plaque reduction and cytotoxicity assays have been previously described (Schinazi et al, Antimicrob. Agents Chemother. 22, 499-507, 1982). Median-effect method. Dose-effect relationships were analyzed by the median-effect equation (Chou et al, Adv. Enz. Regul. 22, 27-55, 1984). The slope (m) and median effective and inhibitory concentration (EC50 and IC50) values were obtained by using a computer program developed by Chou and Chou (Chou et al, Elsevier-Biosoft, Elsevier Science Publishers, Cambridge, U.K., 1985).

Friend, Spleen (EY-10) = assay: UV/XC assay for murine retroviruses in SC-1 cells; format: cell-based, murine retrovirus; details: Table 2, read-out: EC-50 Friend, Spleen (EY-10)
Protocol: UV/XC Assay for Murine Retroviruses Cells. Mouse embryo fibroblasts (SC-1) and XC cells were obtained from the American Type Culture Collection, Rockville, Md. The XC cell line was derived from a transplantable tumor induced in newborn White-Weston rats by the intramuscular injection of the Prague strain of Rous sarcoma virus. […] The cells were maintained in Eagle's minimum essential medium with Hanks balanced salt solution, supplemented with penicillin (100 U/ml), streptomycin (100 μg/ml), sodium bicarbonate (24 mM), Hepes (25 mM), and either 2 (maintenance) or 10 (growth) percent inactivated newborn or fetal calf serum.
Virus quantitation by UV-XC assay. The XC test (Rowe et al, Virology 42, 1136-1139, 1970) is a plaque-type of assay which tests for the presence and titer of B- and N-tropic murine leukemia viruses. Because these viruses produce no overt signs of infection of SC-1 mouse cells, it is necessary to overlay the virus producing culture with an indicator cell line, XC. The number of syncytia that are produced is a direct measure of the virus titer in FFU.
Six-well plates were seeded with 1×10^5 SC-1 mouse cells on the first day. On the following day the medium was removed and the inoculum (0.2 ml) was added in medium containing polybrene (4 μg/ml). For determining the antiviral activity of the compounds in culture, the virus dilution selected produced in untreated cultures about 80 foci per well. After 1 hour, the virus was removed and various concentrations of the drug were added. The plates were replenished with medium on the third and fifth days. The medium was removed on the eighth day and the cells exposed to UV irradiation (60 erg/mm^2 per sec) for 30 seconds. Medium containing 10^6 XC cells was then added to each plate. On the eleventh day, the plates were fixed with 10% buffered Formalin and stained with crystal violet. Comparison of the number of foci to those found in virus-infected cells receiving no drug allowed determination of whether a drug at a particular concentration was effective. Control cells without virus but receiving the drug provided an estimate of the drug's toxic effects as quantitated by using trypan blue staining.

[2] = target: T1, HIV-1 reverse transcriptase (Human immunodeficiency virus type 1 group M subtype B, UniProt P04585); assay: Evaluation of compounds on purified retroviral RT (cell-free, virion-derived); format: biochemical; details: Table 2; read-out: EC-50 Cell-Free RT (virion-derived)
T1 construct: HIV-1 RT was isolated from detergent disrupted virions; made in house; host or cells: virions pelleted from culture fluid of HIV-1-infected PHA-stimulated human PBMC; DEAE-cellulose and phosphocellulose chromatography
Summary of the method: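 Enzyme was HIV-1 RT partially purified from virions of infected PHA-stimulated PBMC by DEAE-cellulose and phosphocellulose chromatography. Reactions at pH 8.0 with 2 mM MgCl2, 50 mM KCl, 3 μg/ml (rA)·(dT)12-18 template and 1 μM [3H]TTP, 60 min at 37 °C. IC50 from median-effect analysis.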

Molecule: Cc1cn([C@H]2C[C@H](N=[N+]=[N-])[C@@H](CO)O2)c(=O)[nH]c1=O [Formula 22, 3′-azido-3′-deoxythymidine, reference compound]
- toxicity to human bone marrow cells (order of toxicity, FIG. 6) ([1]; human, 14 days): BT and NH4ST<AZT and ST<HPA-23
- EC50 (HSV-1; Human alphaherpesvirus 1, Vero): > 100000 nM
- EC50 (Friend, Spleen (EY-10); unidentified retrovirus, SC-1): 10 nM

Molecule: (ArgH^+)m(H^+)4-mST, where m=1-4 [(ARGH^+)nH^+(4−n)ST]
- EC50 [2]: 14200 nM
- EC50 (HSV-1): 180 nM
- EC50 (Friend, Spleen (EY-10)): 990 nM

Molecule: (Me4N)4W10O32 [Formula 19]
- EC50 [2]: 10100 nM
- EC50 (HSV-1): 5980 nM

Molecule: (NH4)4W10O32 [Formula 18]
- EC50 [2]: 24200 nM
- EC50 (HSV-1): > 10000 nM
- EC50 (Friend, Spleen (EY-10)): 580 nM

Molecule: (NH4)6P2W18O62 [Formula 14]
- EC50 [2]: 130 nM
- EC50 (HSV-1): 330 nM

Molecule: H3PW12O40 [Formula 2]
- EC50 [2]: > 100000 nM
- EC50 (HSV-1): 12700 nM

Molecule: H4SiW12O40 [Formula 3]
- toxicity to human bone marrow cells (order of toxicity, FIG. 6) [1]: BT and NH4ST<AZT and ST<HPA-23
- EC50 [2]: 26100 nM
- EC50 (HSV-1): 1600 nM
- EC50 (Friend, Spleen (EY-10)): 170 nM

Molecule: H5BW12O40 [Formula 4]
- toxicity to human bone marrow cells (order of toxicity, FIG. 6) [1]: NH4BT (least toxic)<BT and NH4ST<AZT and ST
- EC50 [2]: 2600 nM
- EC50 (HSV-1): < 1000 nM
- EC50 (Friend, Spleen (EY-10)): 180 nM

Molecule: H6P2W18O62 [Formula 13]
- EC50 [2]: 140 nM
- EC50 (HSV-1): 160 nM
